Earlier results on three compounds are cited in patent US11134680B2, “Disinfectant having organic acids” (Bode Chemie GmbH, priority 2015, dated 2021).

The subject of one data set is Staphylococcus aureus. The note with it: exposure time of 72 hours.
The conditions of data set [1]: at 20° C.
The next data set relates to C. albicans. The settings on record: 72 hours.

Take `CC(=O)O` [acetic acid]: the “minimum inhibitory concentration (MIC)” value in the data set with Staphylococcus aureus is 9%.

Regarding `CC(O)C(=O)O` (centres unmarked) [lactic acid], the reduction factor in the data set with Staphylococcus aureus (concentration of 0.3%) is recorded as above 5 log. Further, the pKa in data set [1] is reported as 3.87.

As to `O=C([O-])c1ccccc1.[Na+]` [sodium benzoate], in the data set on C. albicans (>5 log), the MMC was 1200 µg/mL. Also, the “reduction (microbicidal action)” value in the data set with C. albicans (application solution of 0.12%) was above 5 log.
